# Assay results published in PMC10214526, “Semisynthetic LC3 Probes for Autophagy Pathways Reveal a Noncanonical LC3 Interacting Region Motif Crucial for the Enzymatic Activity of Human ATG3” (ACS Central Science, 2023).
# Key:
# Ube2K = experiment: Reaction of Ubl probes with ubiquitin E2 Ube2K; assay type: biochemical; settings: probe 15 μM, Ube2K 15 μM, 1 h, SDS-PAGE
# Experimental: Figure 1 Modification of ATG3 with GABARAP ABPs depends on LIR^ATG3. a. Characterization of GABARAP activity-based probes, 1 and 2, obtained by hydrazide-acylation. Deconvoluted mass-spectrum (ESI) of GABARAP(ΔG116)–NHNH α-chloroacetyl 1. Expected mass 13707 Da. Deconvoluted mass-spectrum (ESI) of GABARAP(ΔG116)–NHNH methyl-fumarate 2. Expected mass 13743 Da. b. […] The reaction was allowed to proceed for 1 h and was analyzed by SDS-PAGE and Coomassie Blue staining. c. ColabFold-predicted structure of the protein-complex of ATG3 and GABARAP. Side-chain atoms are shown for the predicted LIR motif in ATG3 (90–112). d. Reaction of 2 (15 μM) with ATG3 variants C1, C0, and ΔLIR (15 μM). ATG3 C1 contains only active-site cysteine C264. ATG3 C0 contains no cysteines. ATG3 ΔLIR lacks amino acids 95–111. Reaction was allowed to proceed for 1 h and was analyzed by SDS-PAGE and Coomassie Blue staining. […]
# Farnung et al. Supplementary Information and monitored using LC-MS analysis. […]
# SUMO-GABARAP/LC3A-Mxe GyrA-His6 fusion after Ni-NTA purification was dialyzed against intein cleavage buffer (25 mM HEPES, 500 mM NaCl, 1 mM EDTA pH 7.2 at 4 °C). […] The solution was allowed to stand at room temperature and monitored using LC-MS analysis. […]
# Ubl probes (15 μM) were mixed with E2s (15 μM) in PBS. […] If required, gel bands were quantified by gel densitometry using ImageLab (Bio- […]
# ATG3 = experiment: Reaction (cross-linking) of Ubl activity-based probes with recombinant ATG3 and variants; assay type: biochemical, human; settings: probe 15 μM, SDS-PAGE
# Experimental: Figure 1 Modification of ATG3 with GABARAP ABPs depends on LIR^ATG3. a. Characterization of GABARAP activity-based probes, 1 and 2, obtained by hydrazide-acylation. Deconvoluted mass-spectrum (ESI) of GABARAP(ΔG116)–NHNH α-chloroacetyl 1. Expected mass 13707 Da. Deconvoluted mass-spectrum (ESI) of GABARAP(ΔG116)–NHNH methyl-fumarate 2. Expected mass 13743 Da. b. […] The reaction was allowed to proceed for 1 h and was analyzed by SDS-PAGE and Coomassie Blue staining. c. ColabFold-predicted structure of the protein-complex of ATG3 and GABARAP. Side-chain atoms are shown for the predicted LIR motif in ATG3 (90–112). d. Reaction of 2 (15 μM) with ATG3 variants C1, C0, and ΔLIR (15 μM). ATG3 C1 contains only active-site cysteine C264. ATG3 C0 contains no cysteines. ATG3 ΔLIR lacks amino acids 95–111. Reaction was allowed to proceed for 1 h and was analyzed by SDS-PAGE and Coomassie Blue staining. Full-gel images for b and d are available in the Supplementary Information.
# We were intrigued by the cross-linking efficiency of 2 with ATG3 and sought to investigate the origin of this efficiency by generating a C1 variant of ATG3 that only contains the catalytic cysteine 264 and a corresponding C0 variant containing no cysteines. […] In general, the affinity of E2s for their cognate Ubls are quite low, as the thioester transfer from the E1 to the E2 enzyme is facilitated by additional interactions from the UFD domain of the E1 enzyme.[23] […]
# Upon completion the solution was dialyzed against 25 mM
# HEPES, 200 mM NaCl pH 7.2 at 4 °C. Cleaved intein was removed using gravity Ni-NTA purification.
# The flow-through was collected and combined with resin washes. The combined fractions were dialyzed and further purified using ion exchange.
# 3.3. Generation of GABARAP and LC3A hydrazides from SUMO-GABARAP/LC3A-Mxe GyrA-
# SUMO-GABARAP/LC3A-Mxe GyrA-His6 fusion after Ni-NTA purification was dialyzed against intein cleavage buffer (25 mM HEPES, 500 mM NaCl, 1 mM EDTA pH 7.2 at 4 °C). After dialysis hydrazine monohydrate (75 mM) and MESNa (10 mM) was added and the pH adjusted to 7.8. The solution was allowed to stand at room temperature and monitored using LC-MS analysis. Upon completion the solution was dialyzed against 25 mM HEPES, 500 mM NaCl pH 7.2 at 4 °C. SENP1 (1 wt%) was added to cleave the SUMO-tag. The cleaved intein was removed using gravity Ni-NTA purification. […]
# dialyzed and further purified using cation exchange using a buffer 25 mM Tris pH 8.0 and a gradient of […] in the same buffer over 25 column volumes. The product fractions were pooled, concentrated, and stored at –80 °C until further use.
# 3.4. Synthesis of symmetrical anhydrides
# The carboxylic acid was dissolved in CH2Cl2 (300 mM) and dicyclohexylcarbodiimide (0.5 eqiv) was added in one portion. The reaction was stirred under N2 for 18 h. The suspension was filtered and concentrated to ~10% of the initial volume. The solution was placed at 4 °C for 1 h and filtered again.
# The filtrate was concentrated to obtain the symmetrical anhydride which was used without further purification. Anhydrides can be stored at –20 °C for weeks.
# 3.5. Reaction of modified Ubl probes with E2s
# Ubl probes (15 μM) were mixed with E2s (15 μM) in PBS. The mixture was incubated at 37 °C in a water bath for 0.5-3 h. The reaction was quenched by addition of 2x Laemmli buffer and boiled at 95 °C for 5 min. Samples were resolved by SDS-PAGE (8-16%, Bio-Rad) and visualized by […]
# Coomassie staining. […]
substance,measurement,setting,value
GABARAP(ΔG116)–NHNH methyl-fumarate [compound 2],Reaction with Ube2K,Ube2K,did not react
same,Reaction with ATG3 wt,"ATG3; ATG3 15 μM, 1 h, Coomassie Blue",reacted with ATG3 efficiently leading to the formation of multiple ATG3–GABARAP bands
same,Reaction with ATG3 C0,ATG3; ATG3 C0 (no cysteines) 15 μM,no reaction was observed
same,Reaction with ATG3 C1,ATG3; ATG3 C1 (only active-site C264) 15 μM,excellent reactivity
same,Reaction with ATG3 ΔLIR,ATG3; ATG3 C1 ΔLIR (Δ95–111) 15 μM,no complex formation
same,Reaction with ATG3 C264A,ATG3; catalytically inactive ATG3 C264A 15 μM,loss of one ATG3–GABARAP band but did not abrogate additional bands for the complex
